Assay results: patent US20030040531A1, “Remedies for reperfusion injury containing integrin alphanubeta 3 antagonist” (priority 2000, published 2003)

Tests used:
[1] = molecular target: integrin αvβ3 (Homo sapiens, UniProt P05106+P06756); experiment: integrin αvβ3 binding assay (Pharmacological Example 1 in WO 99/38849)
Text: Whether or not a compound has integrin αvβ3 antagonistic activity may be determined by assaying the antagonistic action by integrin αvβ3 binding assay as described, for example, in Pharmacological Test Example 1 in WO 99/38849.

[2] = test system: human vascular smooth muscle cells; experiment: adhesion of human vascular smooth muscle cells to immobilized human vitronectin; format: cell-based; settings: read-out: concentration (IC50) necessary for inhibition of adhesion to vitronectin
Protocol: (§1) The adhesion of vascular smooth muscle cells to immobilized human vitronectin was measured in accordance with the method of Liaw et al. (L. Liaw et al., Circ. Res., 74, 214 (1994)). A Dulbecco's phosphate buffer (Dulbecco's PBS(−)) solution of human serum-derived vitronectin adjusted to a concentration of 4 μg/ml was first added to wells (50 μl/well) of a microplate (Maxisorp), and a reaction for immobilization was allowed to proceed at 4° C. overnight. After washing twice with 150 μl of Dulbecco's PBS (−), Dulbecco's PBS (−) containing 10 mg/ml of bovine serum albumin was added, followed by blocking at 37° C. for one hr. The microplate was then washed twice with 150 μl of Dulbecco's PBS (−) to prepare an assay plate.
Separately, human vascular smooth muscle cells cultivated at 37° C. under 5% carbon dioxide in a medium for vascular smooth muscle cells were separated using a Dulbecco's PBS (−) containing trypsin-EDTA, were washed with Dulbecco's PBS (−), and were then suspended in a Dulbecco's modified Eagle's basal medium to a concentration of 2×10^5/ml.
(§2) Next, 50 μl of a Dulbecco's modified Eagle's basal medium containing 20 mg/ml of bovine serum albumin with a medicament added thereto was added to the wells of the human vitronectin-coated assay microplate, followed by pre-cultivation under 5% carbon dioxide at 37° C. for 10 min. Thereafter, 50 μl of the Dulbecco's modified Eagle's basal medium with human vascular smooth muscle cells suspended therein was added thereto, and the plate was thoroughly stirred. A reaction was allowed to proceed under 5% carbon dioxide at 37° C. for 90 min. The reaction solution containing non-adherent cells was then removed, followed by washing three times with Dulbecco's PBS (−). For the adhered cells, 100 μl of Dulbecco's PBS (−) containing 4% paraformaldehyde was added, and immobilization was allowed to proceed at room temperature for 10 min. Next, 100 μl of a Dulbecco's PBS (−) containing 0.5% Toluidine Blue and 4% paraformaldehyde was added, and staining was allowed to proceed at room temperature for 5 min, followed by thorough washing with distilled water. The inside of the wells was then air-dried, and 1% aqueous sodium dodecylsulfate solution was then added to perform cytolysis. The absorbance of the microplate thus obtained was measured at 595 nm. […] The inhibition was calculated by the following equation. IC50 was determined from a primary regression line of the logarithm of each concentration of the test compound and the logarithm of (100−inhibition)/inhibition. [formula]

[3] = test system: rat vascular smooth muscle cells; experiment: adhesion of rat vascular smooth muscle cells to rat vitronectin; format: cell-based; settings: read-out: concentration (IC50) necessary for inhibition of adhesion to vitronectin
Protocol: as §1, §2
(§3) Rat vascular smooth muscle cells were cultivated in a medium composed of a mixture of equal amounts of 15% fetal calf serum-containing 199 medium and RPMI 1640 medium. Separately, hamster and dog vascular smooth muscle cells were cultivated in a 10% fetal calf serum-containing Dulbecco's modified Eagle's basal medium. These cultivated cells were then suspended in a Dulbecco's modified Eagle's basal medium to concentrations of 3×10^5 cells/ml (rat), 3×10^5 cells/ml (hamster), and 4×10^5 cells /ml (dog), respectively. Rat vitronectin was used in the adhesion system of rats and hamsters, while bovine vitronectin was used in the adhesion system of dogs.

[4] = test system: dog vascular smooth muscle cells; experiment: adhesion of dog vascular smooth muscle cells to bovine vitronectin; format: cell-based; settings: Canis lupus familiaris, read-out: concentration (IC50) necessary for inhibition of adhesion to vitronectin
Protocol: as §1, §2, §3

[5] = test system: platelet aggregation; experiment: inhibition of platelet aggregation, human; format: cell-based; settings: read-out: concentration (IC50) necessary for inhibition of platelet aggregation
[6] = test system: platelet aggregation; experiment: inhibition of platelet aggregation, rat; format: cell-based; settings: read-out: concentration (IC50) necessary for inhibition of platelet aggregation
[7] = test system: platelet aggregation; experiment: inhibition of platelet aggregation, dog; format: cell-based; settings: Canis lupus familiaris, read-out: concentration (IC50) necessary for inhibition of platelet aggregation
[8] = test system: rat acute myocardial ischemia-reperfusion model; experiment: rat acute myocardial ischemia-reperfusion model; format: in vivo; settings: for myocardial infarct size (proportion of the infarct area in the left ventricle): average value±SE; for influence on the blood pressure and the heart rate: doses at which the infarct inhibition action could be obtained
Protocol: Male Wistar rats (330 to 420 g) were subjected to controlled respiration using an artificial respirator under pentobarbital anesthesia (60 mg/kg, i.p.), and the blood pressure and the heart rate were measured through a blood pressure amplifier and a heart rate unit. Further, for the ischemia of the myocardium, an increase in voltage of R-wave in the II leading in an electrocardiogram was confirmed with a monitor through a bioelectricity amplifier. The rats underwent thoracotomy, and the coronary artery, together with the myocardium, was then occluded using a suture with a needle. Ischemia for 3 min and reperfusion for 5 min were followed by ischemia for 45 min and reperfusion for 45 min. Medicaments tested and concentrations thereof were 3 mg/kg+3 mg/kg/hr (bolus +infusion) (L; low dose group) and 6 mg/kg+3 mg/kg/hr (bolus +infusion) (H; high dose group) for the compound represented by formula (V); 3 mg/kg+3 mg/kg/hr (bolus +infusion) for the compound represented by formula (VI); 3 mg/kg+3 mg/kg/hr (bolus +infusion) (L; low dose group) and 6 mg/kg+3 mg/kg/hr (bolus +infusion) (H; high dose group) for the compound represented by formula (IV); 5 mg/kg+5 mg/kg/hr(bolus +infusion)(L; low dose group) and 10 mg/kg+10 mg/kg/hr (bolus +infusion) (H; high dose group) for the compound represented by formula (VII); and 1 mg/kg+1 mg/kg/hr (bolus+infusion) (L; low dose group) and 6 mg/kg+6 mg/kg/hr (bolus+infusion) (H; high dose group) for the compound represented by formula (VIII). For a control group (group C), a 10% (v/v) dimethyl sulfoxide/5% glucose solution was administered, and each medicament was dissolved in the same solvent. The dose volume was 3 ml/kg+3 ml/kg/h (bolus+infusion). The medicament was continuously administered through an infusion pump for the period starting with one min before the ischemia and ending with the completion of the experiment. After reperfusion for 45 min, the rats were slaughtered by excessive administration of pentobarbital, and the heart was removed. After perfusion with a Ringer solution, perfusion staining was carried out with 1.5% triphenyltetrazolium chloride, and the proportion of the infarct area in the left ventricle was quantitatively determined. For animals used in the experiment, each group consisted of 5 rats.

[9] = 3 mg/kg+3 mg/kg/hr (bolus+infusion)
[10] = 3 mg/kg+3 mg/kg/hr (bolus+infusion), n=5

Sequence of integrin αvβ3 (P06756 31-1048): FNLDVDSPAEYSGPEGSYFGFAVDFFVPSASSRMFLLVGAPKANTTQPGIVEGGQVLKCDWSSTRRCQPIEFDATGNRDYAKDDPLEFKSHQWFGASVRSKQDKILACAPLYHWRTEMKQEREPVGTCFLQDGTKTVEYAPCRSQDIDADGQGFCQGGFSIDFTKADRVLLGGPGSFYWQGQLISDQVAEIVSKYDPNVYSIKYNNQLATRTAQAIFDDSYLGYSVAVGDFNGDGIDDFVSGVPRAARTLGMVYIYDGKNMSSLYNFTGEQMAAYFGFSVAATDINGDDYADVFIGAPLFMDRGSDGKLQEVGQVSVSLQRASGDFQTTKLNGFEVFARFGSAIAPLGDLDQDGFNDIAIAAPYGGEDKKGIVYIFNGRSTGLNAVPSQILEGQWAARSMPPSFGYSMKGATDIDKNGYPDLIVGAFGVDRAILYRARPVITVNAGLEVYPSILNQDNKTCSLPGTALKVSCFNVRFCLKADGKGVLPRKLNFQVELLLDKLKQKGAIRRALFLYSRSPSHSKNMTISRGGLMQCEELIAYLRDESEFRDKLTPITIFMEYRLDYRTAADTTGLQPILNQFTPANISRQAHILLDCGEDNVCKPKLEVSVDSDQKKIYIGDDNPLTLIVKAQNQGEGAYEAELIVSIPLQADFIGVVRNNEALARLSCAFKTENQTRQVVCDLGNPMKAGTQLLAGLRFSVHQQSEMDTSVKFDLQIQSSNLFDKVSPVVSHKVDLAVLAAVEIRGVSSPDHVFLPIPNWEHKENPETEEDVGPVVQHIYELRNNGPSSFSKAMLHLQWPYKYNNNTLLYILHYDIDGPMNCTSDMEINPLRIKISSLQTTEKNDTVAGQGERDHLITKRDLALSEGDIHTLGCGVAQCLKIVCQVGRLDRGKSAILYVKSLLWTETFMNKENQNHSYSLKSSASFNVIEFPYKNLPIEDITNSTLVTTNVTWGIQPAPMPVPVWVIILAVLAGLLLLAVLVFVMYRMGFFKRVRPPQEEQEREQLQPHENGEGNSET
Sequence of integrin αvβ3 (P05106 27-788): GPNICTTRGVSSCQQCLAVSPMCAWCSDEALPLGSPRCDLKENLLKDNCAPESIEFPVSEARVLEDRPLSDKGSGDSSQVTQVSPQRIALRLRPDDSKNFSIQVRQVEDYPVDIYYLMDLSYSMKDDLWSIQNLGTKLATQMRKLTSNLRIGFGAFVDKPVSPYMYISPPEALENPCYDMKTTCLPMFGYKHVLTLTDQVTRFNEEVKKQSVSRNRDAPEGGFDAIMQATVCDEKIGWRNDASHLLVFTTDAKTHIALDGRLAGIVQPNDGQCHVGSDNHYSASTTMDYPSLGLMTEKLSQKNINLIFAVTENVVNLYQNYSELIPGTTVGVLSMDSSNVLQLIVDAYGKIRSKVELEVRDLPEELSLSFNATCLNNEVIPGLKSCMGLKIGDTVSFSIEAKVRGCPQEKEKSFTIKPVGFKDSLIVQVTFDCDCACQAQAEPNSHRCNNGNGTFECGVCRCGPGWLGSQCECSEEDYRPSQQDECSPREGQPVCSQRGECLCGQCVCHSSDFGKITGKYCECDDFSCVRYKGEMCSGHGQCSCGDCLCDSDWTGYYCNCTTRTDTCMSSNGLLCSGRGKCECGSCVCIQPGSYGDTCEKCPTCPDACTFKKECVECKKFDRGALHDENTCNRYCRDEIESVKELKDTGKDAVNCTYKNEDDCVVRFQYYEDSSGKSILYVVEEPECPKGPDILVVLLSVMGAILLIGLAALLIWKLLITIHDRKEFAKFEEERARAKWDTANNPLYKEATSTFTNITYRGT

| Structure (SMILES) | IC50 [1] [nM] | IC50 [2] [nM] | IC50 [3] [nM] | IC50 [4] [nM] | IC50 [5] [nM] | IC50 [6] [µM] | IC50 [7] [nM] | reduction of myocardial infarct size as compared with group C ([8]; 5 mg/kg+5 mg/kg/hr (bolus+infusion), group L) [%] | myocardial infarct size (proportion of the infarct area in the left ventricle) ([8]; 5 mg/kg+5 mg/kg/hr (bolus+infusion), group L, n=5, group C 38.8±[…]) [%] | reduction of myocardial infarct size as compared with group C ([8]; 10 mg/kg+10 mg/kg/hr (bolus+infusion), group H) [%] | myocardial infarct size (proportion of the infarct area in the left ventricle) ([8]; 10 mg/kg+10 mg/kg/hr (bolus+infusion), group H, n=5, group C 38.8±[…]) [%] | influence on the blood pressure and the heart rate [8] | reduction of myocardial infarct size as compared with group C [8, 9] [%] | myocardial infarct size (proportion of the infarct area in the left ventricle) [8, 10] [%] | reduction of myocardial infarct size as compared with group C ([8]; 6 mg/kg+3 mg/kg/hr (bolus+infusion), group H) [%] | myocardial infarct size (proportion of the infarct area in the left ventricle) ([8]; 6 mg/kg+3 mg/kg/hr (bolus+infusion), group H, n=5) [%] | reduction of myocardial infarct size as compared with group C ([8]; 1 mg/kg+1 mg/kg/hr (bolus+infusion), group L) [%] | myocardial infarct size (proportion of the infarct area in the left ventricle) ([8]; 1 mg/kg+1 mg/kg/hr (bolus+infusion), group L, n=5, group C 36.0±1.9%) [%] | reduction of myocardial infarct size as compared with group C ([8]; 6 mg/kg+6 mg/kg/hr (bolus+infusion), group H) [%] | myocardial infarct size (proportion of the infarct area in the left ventricle) ([8]; 6 mg/kg+6 mg/kg/hr (bolus+infusion), group H, n=5, group C 36.0±1.9%) [%] |
| --- | --- | --- | --- | --- | --- | --- | --- | --- | --- | --- | --- | --- | --- | --- | --- | --- | --- | --- | --- | --- |
| O=C(NC[C@H](NS(=O)(=O)c1ccc(O)cc1)C(=O)O)c1ccc(N2CCC(NC3=NCCCN3)CC2)c(F)c1 [formula (VII), 3-[3-Fluoro-4-{4-(1,4,5,6-tetrahydropyrimidin-2-ylamino)piperidin-1-yl}benzoylamino]-(2S)-{(4-hydroxybenzenesulfonyl)amino}propionic Acid] | 0.066 | 69 | 640 | 18 | 230 | > 100 | 190 | 24.5 | 29.3±1.7 | 41.5 | 22.7±3.8 | no influence | – | – | – | – | – | – | – | – |
| O=C(NC[C@@H](NS(=O)(=O)c1ccccc1)C(=O)O)c1ccc(N2CCCC(NC3=NCCCN3)C2)cc1F (stereo partly drawn) [formula (X), (2S)-Benzenesulfonylamino-3-[2-fluoro-4-{(3S)-(1,4,5,6-tetrahydropyrimidin-2-ylamino)-piperidin-1-yl}benzoylamino]propionic Acid] | 0.16 | 13 | 96 | 9.7 | 410 | – | 110 | – | – | – | – | – | – | – | – | – | – | – | – | – |
| O=C(NCC(NS(=O)(=O)c1ccccc1)C(=O)O)c1ccc(N2CCC(NC3=NCCCN3)CC2)cc1 (stereo in doubt) [formula (V), (2S)-Benzenesulfonylamino-3-[4-{4-(1,4,5,6-tetrahydropyrimidin-2-ylamino)piperidin-1-yl}-benzoylamino]propionic Acid] | 1.2 | 190 | 800 | – | 63 | 13 | – | – | – | – | – | no influence | 16.1 | 39.0±1.7 | 35.5 | 30.0±1.6 | – | – | – | – |
| O=C(NC[C@@H](NS(=O)(=O)c1ccccc1)C(=O)O)c1ccc(N2CCCC(NC3=NCCCN3)C2)cc1 (stereo partly drawn) [formula (IX), (2S)-Benzenesulfonylamino-3-[4-{(3S)-(1,4,5,6-tetrahydropyrimidin-2-ylamino)piperidin-1-yl}benzoylamino]propionic Acid] | 0.53 | 28 | 96 | 11 | 56 | – | 59 | – | – | – | – | – | – | – | – | – | – | – | – | – |
| O=C(NC[C@@H](NS(=O)(=O)c1cccs1)C(=O)O)c1ccc(N2CCCC(NC3=NCCCN3)C2)cc1 (stereo partly drawn) [formula (XI), 3-[4-{(3S)-(1,4,5,6-Tetrahydropyrimidin-2-ylamino)piperidin-1-yl}benzoylamino]-(2S)-{(thiophene-2-sulfonyl)amino}propionic Acid] | 0.14 | 24 | – | – | 95 | – | – | – | – | – | – | – | – | – | – | – | – | – | – | – |
| COc1cc(C(=O)NCC(NS(=O)(=O)c2ccccc2)C(=O)O)ccc1N1CCC(NC2=NCCCN2)CC1 (stereo in doubt) [formula (VIII), (2S)-Benzenesulfonylamino-3-[3-methoxy-4-{4-(1,4,5,6-tetrahydropyrimidin-2-ylamino)-piperidin-1-yl}benzoylamino]propionic Acid] | 0.14 | 130 | 760 | 28 | 130 | – | 56 | – | – | – | – | no influence | – | – | – | – | 24.2 | 27.3±5.2 | 32.5 | 24.3±3.8 |
| O=C(NCC(NS(=O)(=O)c1ccccc1)C(=O)O)c1ccc(OCCNC2=NCCCN2)cc1 (stereo in doubt) [formula (VI), 4-[2-(3,4,5,6-Tetrahydropyrimidin-2-ylamino)ethyloxy]benzoyl-2(S)-phenylsulfonylamino-β-alanine] | 0.39 | 72 | 450 | – | 180 | > 100 | – | – | – | – | – | no influence | 34.8 | 30.3±6.1 | – | – | – | – | – | – |
